Results from patent US20260206761A1, “HETEROARYL-TRIAZOLE COMPOUNDS AS PESTICIDES” (Bayer Aktiengesellschaft, priority 2019, published 2026).

Assays:
Type in all cases: in vivo
[1] = test system: adult engorged female ticks (Rhipicephalus microplus); assay: Rhipicephalus (Boophilus) microplus injection test; settings: 168 h, egg deposition after 7 days, read-out: activity (efficacy: infertile eggs); for pest or weed control at 4 pg: application rate 4 pg/animal; for pest or weed control at 0.02 mg: application rate 20 μg/animal
How it was run: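 Abdominal injection, 1 μL compound/DMSO, n=5 engorged adult females; climate-chamber incubation. Readout d7: fertile egg laying; doubtful eggs held to hatch (~42 d). % efficacy = infertile eggs (100% all infertile).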

[2] = test system: adult unfed cat fleas (Ctenocephalides felis); assay: Ctenocephalides felis oral test; settings: 48 h, read-out: activity (mortality)
How it was run: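 About 20 adult unfed fleas fed through parafilm on cattle blood containing compound (DMSO stock diluted in blood), blood held at 37 °C and fleas at room temperature. Mortality (%) scored after 2 days.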

[3] = test system: green peach aphid (Myzus persicae); assay: Myzus persicae oral test; settings: 120 h, application rate 4 ppm, after 5 days
How it was run: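 Readout: % mortality at day 5, where 100% = all aphids dead and 0% = none dead. Feeding via parafilm membrane over compound in IPL41 medium (33%+15% sugar); mixed-age population. Stock in acetone (1:100 w/w), water-diluted.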

[4] = test system: Musca domestica strain WHO-N; assay: Musca domestica test (MUSCDO surface treatment & contact assay); settings: 24 hours after contact, read-out: efficacy (mortality); for mortality at 20 mg/m2: surface concentration 20 mg/m^2, exposure 30 minutes; for mortality at 4 mg/m2: surface concentration 4 mg/m^2, exposure 30 minutes
Protocol: Musca domestica Test (MUSCDO Surface Treatment & Contact Assay)
(§1) Solvent: Aceton+2000 ppm rapeseed oil methyl ester (RME)
(§2) In order to produce a sufficient, active ingredient containing solution it is necessary to solve the test compound in the solvent-mix (acetone at 2 mg/ml/RME 2000 ppm). This solution is pipetted onto a glazed tile and after evaporation of the acetone, adult flies of the species Musca domestica strain WHO—N are placed onto the dried surface. The exposure time is 30 minutes. Mortality in percent (%) is determined 24 hours after contact of the insects to the treated surface. 100% mortality means that all tested insects are dead, whereas 0% means that no insect died.

[5] = test system: Rhipicephalus microplus larvae (strain Parkhurst, resistant against synthetic pyrethroids); assay: Rhipicephalus (Boophilus) microplus in-vitro contact test, larval cattle tick; settings: after 48 hours, read-out: activity (efficacy: larvae dead or moribund); for pest or weed control at 100 g/ha: application rate 1 pg/cm^2 (=100 g/ha); for pest or weed control at 500 g/ha: application rate 5 pg/cm^2 (=500 g/ha)
How it was run: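 Larvae (20-50 per tube) exposed to dry compound film on glass tube walls, 5 μg/cm^2 at 900 ppm, applied from acetone. After 48 h at 27° C./85% RH, tubes tapped and negative geotaxis scored; efficacy as percent dead or moribund larvae.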

[6] = test system: adult brown dog ticks (Rhipicephalus sanguineus); assay: Rhipicephalus sanguineus in-vitro contact test, adult brown dog ticks; settings: after 48 hours, read-out: activity (efficacy: ticks dead or moribund); for pest or weed control at 5 µg/cm2, 500 g/ha: application rate 5 μg/cm^2 (=500 g/ha); for pest or weed control at 100 g/ha: application rate 1 pg/cm^2 (=100 g/ha)
How it was run: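 Contact exposure: dried compound film inside glass tubes, dose 5 μg/cm^2 at 900 ppm, 5-10 adults per tube at room temperature. Scored at 48 h via a heat-escape test on a 45-50° C plate for up to 5 min.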

[7] = test system: larvae of the banded cucumber beetle (Diabrotica balteata); assay: Diabrotica balteata spray test; settings: 168 h, after 7 days, read-out: activity (efficacy: seedlings grown); for pest or weed control at 100 g/ha: application rate 100 g/ha (=32 pg/well)
How it was run: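 Read-out is % efficacy at day 7, 0% meaning no seedling growth and 100% growth equal to uninfested untreated controls. Test solutions (acetone/DMF concentrate diluted with water carrying 1000 ppm emulsifier) were sprayed onto 1-day-germinated wheat seeds, 5 per well, before infestation with 10-20 larvae.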

[8] = test system: fall armyworm larvae (Spodoptera frugiperda); assay: Spodoptera frugiperda spray test; settings: 168 h, read-out: activity (mortality)
How it was run: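 Larvae of fall armyworm placed on dried maize leaf sections previously sprayed with emulsified compound (acetone/DMF solvent, water with 1000 ppm emulsifier). Percent of caterpillars killed recorded on day 7, 0–100% scale.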

[9] = test system: Aedes aegypti strain MONHEIM; assay: Aedes aegypti test (AEDSAE surface treatment & contact assay); settings: 24 hours after contact, read-out: efficacy (mortality); for mortality at 4 mg/m2: surface concentration 4 mg/m^2, exposure 30 minutes; for mortality at 20 mg/m2: surface concentration 20 mg/m^2, exposure 30 minutes
How it was run: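 Percent mortality was read 24 h after adult MONHEIM mosquitoes were held for 30 min on a tile treated with compound. Compound applied from acetone solution (2 mg/ml) containing 2000 ppm rapeseed oil methyl ester, after evaporation.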

[10] = test system: green peach aphid (Myzus persicae); assay: Myzus persicae spray test; settings: 120 h, after 5 days; for mortality at 100 g/ha: application rate 100 g/ha
Protocol: Myzus persicae—Spray Test
Solvent: 78.0 parts by weight acetone • 1.5 parts by weight dimethylformamide
Emulsifier: alkylarylpolyglycol ether
To produce a suitable preparation of active compound, 1 part by weight of active compound is mixed with the stated amount of solvents and is diluted with water, containing an emulsifier concentration of 1000 ppm, to the desired concentration. Further test concentrations are prepared by dilution with emulsifier containing water.
Chinese cabbage (Brassica pekinensis) leaf disks infected with all instars of the green peach aphid (Myzus persicae), are sprayed with a preparation of the active ingredient of the desired concentration.
After 5 days mortality in % is determined. 100% means all aphids have been killed and 0% means none of the aphids have been killed.

[11] = test system: larvae of the southern green stink bug (Nezara viridula); assay: Nezara viridula spray test; settings: 96 h, after 4 days
How it was run: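 Larva-infested barley (Hordeum vulgare) plants received a spray of test solution prepared from an acetone/DMF concentrate diluted in emulsifier-containing water (1000 ppm). Percent kill read 4 days later; 0% means no stink bugs dead.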

[12] = test system: adult cat fleas (Ctenocephalides felis); assay: Ctenocephalides felis in-vitro contact test, adult cat flea; settings: application rate 5 μg/cm^2 (=500 g/ha), after 48 hours, read-out: activity (efficacy: fleas dead or moribund)
Protocol: Ctenocephalides felis—In-Vitro Contact Tests Adult Cat Flea
9 mg compound is solved in 1 mL acetone and diluted with acetone to the desired concentration. 250 μL of the test solution is filled in 25 mL glass test tubes and homogeneously distributed on the inner walls by rotation and tilting on a shaking device (2 h at 30 rpm). With a compound concentration of 900 ppm, an inner surface of 44.7 cm^2 and a homogeneous distribution, a dose of […] is achieved.
After the solvent has evaporated, each test tube is filled with 5-10 adult cat fleas (Ctenocephalides felis), closed with a perforated lid and incubated in a lying position at room temperature and relative humidity. After 48 hours efficacy is determined. The fleas are patted on the ground of the tubes and are incubated on a heating plate at 45-50° C. for at most 5 minutes. Immotile or uncoordinated moving fleas, which are not able to escape the heat by climbing upwards, are marked as dead or moribund.
An efficacy of 100% means all fleas are dead or moribund; 0% means no fleas are dead or moribund.

[13] = test system: Culex quinquefasciatus strain P00; assay: Culex quinquefasciatus test (CULXFA surface treatment & contact assay); settings: 24 hours after contact, read-out: efficacy (mortality)
Protocol: Culex quinquefasciatus Test (CULXFA Surface Treatment & Contact Assay)
as §1
as §2, with “2 000” for “2000”, “mosquitoes” for “flies”, “Culex quinquefasciatus” for “Musca domestica”, “P00” for “WHO—N”

Compound C[C@H](NC(=O)c1cc(Cl)cc(S(=O)(=O)CC(F)(F)F)c1)c1nc(C2CC2)nn1-c1ccc(C#N)cn1 [I-13] has a pest or weed control at 4 pg [1] of 100%, a pest or weed control at 0.02 mg [1] of 100% and a mortality at 100 ppm [2] of 90%. It also gave a mortality at 4 ppm [3] of 90% and a mortality at 20 mg/m2 [4] of 80 to 100%.
Compound CCS(=O)(=O)c1cc(C(=O)N[C@@H](C)c2nc(C3CC3)nn2-c2ccc(C#N)cn2)cc(C(F)(F)F)c1 [I-19] has a pest or weed control at 100 g/ha [5] of 100%, a pest or weed control at 500 g/ha [5] of 100% and a pest or weed control at 4 pg [1] of 100%. For the same compound, the pest or weed control at 0.02 mg [1] was 100%, the mortality at 100 ppm [2] was 90% and the pest or weed control at 5 µg/cm2, 500 g/ha [6] was 80%. For the same compound, the pest or weed control at 100 g/ha [7] was 80%, the mortality at 4 ppm [3] was 100% and the mortality at 100 g/ha [8] was 100%. For the same compound, the mortality at 4 mg/m2 [4] was 80 to 100% and the mortality at 20 mg/m2 [4] was 80 to 100%.
Compound C[C@H](NC(=O)c1cc(Cl)cc(C2(C#N)CC2)c1)c1nc(C2CC2)nn1-c1ccc(C#N)cn1 [I-36] has a pest or weed control at 100 g/ha [5] of 100%, a pest or weed control at 500 g/ha [5] of 100% and a pest or weed control at 4 pg [1] of 100%. It also gave a mortality at 100 ppm [2] of 100%, a pest or weed control at 100 g/ha [6] of 100% and a pest or weed control at 5 µg/cm2, 500 g/ha [6] of 80%. For the same compound, the pest or weed control at 100 g/ha [7] was 100%, the mortality at 100 g/ha [8] was 100% and the mortality at 4 mg/m2 [9] was 80 to 100%. It also gave a mortality at 20 mg/m2 [9] of 80 to 100%, a mortality at 4 mg/m2 [4] of 80 to 100% and a mortality at 20 mg/m2 [4] of 80 to 100%.
COc1nc([C@H](C)NC(=O)c2cc(OC(F)(F)F)cc(S(C)(=O)=O)c2)n(-c2ccc(Cl)cn2)n1 [I-80] gave a pest or weed control at 100 g/ha [7] of 100%, a mortality at 4 ppm [3] of 100% and a mortality at 100 g/ha [10] of 90%. The mortality at 100 g/ha ([11]; application rate 100 g/ha) was 100%, the mortality at 500 g/ha ([11]; application rate 500 g/ha) was 100% and the mortality at 100 g/ha [8] was 100%. For the same compound, the mortality at 4 mg/m2 [4] was 80 to 100% and the mortality at 20 mg/m2 [4] was 80 to 100%.
With Cc1nc([C@H](C)NC(=O)c2cc(C)n(C)n2)n(-c2ccc(C#N)cn2)n1 [II-6] the pest or weed control at 4 pg [1] was 100%, the pest or weed control at 0.02 mg [1] was 100% and the pest or weed control at 5 µg/cm2 [12] was 100%. It also gave a mortality at 100 ppm [2] of 100%, a pest or weed control at 100 g/ha [6] of 80% and a pest or weed control at 5 µg/cm2, 500 g/ha [6] of 100%. The pest or weed control at 500 g/ha ([7]; application rate 500 g/ha (=160 pg/well)) was 100%, the mortality at 100 g/ha [10] was 90% and the mortality at 500 g/ha ([10]; application rate 500 g/ha) was 90%. The mortality at 500 g/ha [8] was 100%, the mortality at 4 mg/m2 [9] was 80 to 100% and the mortality at 20 mg/m2 [9] was 80 to 100%. For the same compound, the mortality at 4 mg/m2 ([13]; surface concentration 4 mg/m^2, exposure 30 minutes) was 80 to 100% and the mortality at 20 mg/m2 ([13]; surface concentration 20 mg/m^2, exposure 30 minutes) was 80 to 100%.
